The text below walks through data of patent publication US8974807B2, “Active agent combinations” (Bayer Cropscience AG, priority 2000, dated 2015).

The subject of experiment [1] is whitefly (Trialeurodes vaporariorum). Kind of experiment: Trialeurodes test (Example 1), sprayed red sage infested by all stages of whitefly. In kind it is in vivo. Particulars: 100 g/ha, sprayed on Lantana camara at 7-day intervals; evaluation 15 days after the second treatment. As for the experimental part: (§1) To produce a suitable preparation of active compound, a commercial formulation of active compound or active compound combination is mixed with water until the desired concentration is reached.
Red sage (Lantana camara) which is heavily infested by all stages of the whitefly (Trialeurodes vaporariorum) is sprayed in intervals of 7 days in each case with a preparation of active compound at the desired application rate.
Evaluation is carried out 15 days after the second treatment. 100% means that all flies have been killed, whilst 0% means that none of the flies have been killed.

Experiment [2] has the same test system. In words: Trialeurodes test (Example 2), sprayed red sage infested by whitefly, evaluated at 15, 19 and 25 days. It is filed as in vivo. Particulars: 100 g/ha. As for the experimental part: as §1
Red sage (Lantana camara) which is heavily infested by the whitefly (Trialeurodes vaporariorum) is sprayed in intervals of 7 days in each case with a preparation of active compound at the desired application rate.
Evaluation is carried out 15, 19 and 25 days after the second treatment. 100% means that all flies have been […], whilst 0% means that none of the flies have been killed.

Turning to `N#C/N=C1\SCCN1Cc1ccc(Cl)nc1` [(16) thiacloprid, thiacloprid], the “Kill rate in %” value in experiment [1] came to 72.8%. In experiment [2] (15 days after the second treatment), the “Kill rate in % 15 days after the second treatment” value worked out at 72.8%. Further, in experiment [2] (19 days after the second treatment), the “Kill rate in % 19 days after the second treatment” value stood at 39.5%. Moreover, the “Kill rate in % 25 days after the second treatment” value in experiment [2] (25 days after the second treatment) is recorded as 0%.
